In brackets after ≈: the same amount, converted by molar mass. Where two headings read alike, the source gives them in different places.
Key:
[1] = test system: Staphylococcus epidermidis 222; test: MIC, standard agar-dilution assay; format: cell-based; settings: read-out: MIC
[2] = test system: Klebsiella pneumoniae X68; test: MIC, standard agar-dilution assay; format: cell-based; settings: read-out: MIC
[3] = test system: Haemophilus influenzae 76; test: MIC, standard agar-dilution assay; format: cell-based; settings: Haemophilus influenzae 76, Ampicillin-resistant strain; read-out: MIC
[4] = test system: Staphylococcus aureus S13E; test: MIC, standard agar-dilution assay; format: cell-based
Streptococcus pyogenes = test: Experimental bacterial infection in mice, ED50; format: in vivo; settings: two doses, dose protecting 50% of animals; for ED50: Streptococcus pyogenes
Method: (§1) The new derivatives of this invention have also shown in vivo antimicrobial activity against experimental bacterial infections. When two doses of test compound were administered to mice in experimental infections, the activity observed was measured as an EDso value [effective dose in mg/kg to protect 50% of the test animals: see Warren Wick, et al., J. Bacteriol. 81, 233-235 (1961)].

Staphylococcus aureus = test: Experimental bacterial infection in mice, ED50; format: in vivo; settings: two doses, dose protecting 50% of animals; for ED50: Staphylococcus aureus
Method: as §1

Streptococcus pneumoniae = test: Experimental bacterial infection in mice, ED50; format: in vivo; settings: two doses, dose protecting 50% of animals; for ED50: Streptococcus pneumoniae
Method: as §1

[5] = test system: Streptococcus pneumoniae Park I; test: MIC, standard agar-dilution assay; format: cell-based; settings: read-out: MIC
[6] = test system: Staphylococcus aureus X1.1; test: MIC, standard agar-dilution assay; format: cell-based; settings: read-out: MIC
[7] = test system: Streptococcus pyogenes C203; test: MIC, standard agar-dilution assay; format: cell-based; settings: read-out: MIC
[8] = test system: Streptococcus sp. group D 2041; test: MIC, standard agar-dilution assay; format: cell-based; settings: read-out: MIC
Escherichia coli EC14 = test: MIC, standard agar-dilution assay; format: cell-based; settings: read-out: MIC
[9] = test system: Haemophilus influenzae C.L.; test: MIC, standard agar-dilution assay; format: cell-based; settings: Ampicillin-sensitive strain, read-out: MIC
[10] = test system: Streptococcus sp. group D X66; test: MIC, standard agar-dilution assay; format: cell-based; settings: Streptococcus sp. group D X66; read-out: MIC
[11] = test system: Staphylococcus aureus V41; test: MIC, standard agar-dilution assay; format: cell-based; settings: Staphylococcus aureus V41, Penicillin-resistant strain, inducibly-resistant to erythromycin; read-out: MIC
Excerpt: (§2) In addition to excellent in vitro activity against erythromycin-sensitive bacteria, several members of this new series have shown in vitro activity against erythromycin-resistant strains. These include strains which are inducibly-resistant to erythromycin (S.. aureus V41 and X400 and S. epidermidis EPI1) and even strains which are constitutively-resistant (S. epidermidis 270).

[12] = test system: Staphylococcus aureus X400; test: MIC, standard agar-dilution assay; format: cell-based; settings: Staphylococcus aureus X400, Methicillin-resistant strain, inducibly-resistant to erythromycin; read-out: MIC
Excerpt: as §2

[13] = sc, subcutaneous, read-out: Subcutaneous ED50

Structure (SMILES)	MIC [1] [µg/mL]	MIC [2] [µg/mL]	MIC [3] [µg/mL]	MIC [4] [µg/mL]	ED50 (Streptococcus pyogenes; po, read-out: Oral ED50) [mg/kg]	ED50 (Staphylococcus aureus; po, read-out: Oral ED50) [mg/kg]	ED50 (Streptococcus pneumoniae; po, read-out: Oral ED50) [mg/kg]	MIC [5] [µg/mL]	MIC [6] [µg/mL]	MIC [7] [µg/mL]	MIC [8] [µg/mL]	MIC (Escherichia coli EC14) [µg/mL]	MIC [9] [µg/mL]	MIC [10] [µg/mL]	Oral ED50 (Streptococcus pyogenes) [mg/kg]	Oral ED50 (Streptococcus pneumoniae) [mg/kg]	further results
CCN[C@@H]1[C@H](C)[C@@H](O)[C@](C)(O)[C@@H](CC)OC(=O)[C@H](C)[C@@H](O[C@H]2C[C@@](C)(OC)[C@@H](O)[C@H](C)O2)[C@H](C)[C@@H](O[C@@H]2O[C@H](C)C[C@H](N(C)C)[C@H]2O)[C@](C)(O)C[C@H]1C [Compound 2, (9S)-9-Deoxo-9-(ethylamino)erythromycin]	1 (≈ 1.31 µM)	64 (≈ 83.9 µM)	4 (≈ 5.24 µM)	2 (≈ 2.62 µM)	12.5	23.4	13.4	0.03 (≈ 0.0393 µM)	1 (≈ 1.31 µM)	0.125 (≈ 0.164 µM)	4 (≈ 5.24 µM)	32 (≈ 41.9 µM)	1 (≈ 1.31 µM)	0.25 (≈ 0.328 µM)			
CCCN[C@@H]1[C@H](C)[C@@H](O)[C@](C)(O)[C@@H](CC)OC(=O)[C@H](C)[C@@H](O[C@H]2C[C@@](C)(OC)[C@@H](O)[C@H](C)O2)[C@H](C)[C@@H](O[C@@H]2O[C@H](C)C[C@H](N(C)C)[C@H]2O)[C@](C)(O)C[C@H]1C [Compound 3, 9-Deoxo-9-(n-propylamino)erythromycin]	0.5 (≈ 0.643 µM)	128 (≈ 165 µM)	2 (≈ 2.57 µM)	0.25 (≈ 0.322 µM)	3.3	11.8	7.2	0.015 (≈ 0.0193 µM)	1 (≈ 1.29 µM)	0.03 (≈ 0.0386 µM)	4 (≈ 5.15 µM)	32 (≈ 41.2 µM)	1 (≈ 1.29 µM)	0.125 (≈ 0.161 µM)	6.1	6.3	ED50 (Streptococcus pyogenes; [13]): 1.67 mg/kg; ED50 (Staphylococcus aureus; [13]): 6.11 mg/kg; Oral ED50 (Staphylococcus aureus; oral): 12.6 mg/kg; ED50 (Streptococcus pneumoniae; [13]): 1.77 mg/kg
CCCCN[C@@H]1[C@H](C)[C@@H](O)[C@](C)(O)[C@@H](CC)OC(=O)[C@H](C)[C@@H](O[C@H]2C[C@@](C)(OC)[C@@H](O)[C@H](C)O2)[C@H](C)[C@@H](O[C@@H]2O[C@H](C)C[C@H](N(C)C)[C@H]2O)[C@](C)(O)C[C@H]1C [Compound 4, 9-Deoxo-9-(n-butylamino)erythromycin]	0.25 (≈ 0.316 µM)	128 (≈ 162 µM)	1 (≈ 1.26 µM)	1 (≈ 1.26 µM)	12.5	14.7	12.5	0.015 (≈ 0.019 µM)	0.25 (≈ 0.316 µM)	0.06 (≈ 0.0758 µM)	1 (≈ 1.26 µM)	64 (≈ 80.9 µM)	1 (≈ 1.26 µM)	0.125 (≈ 0.158 µM)			
CCCCCN[C@@H]1[C@H](C)[C@@H](O)[C@](C)(O)[C@@H](CC)OC(=O)[C@H](C)[C@@H](O[C@H]2C[C@@](C)(OC)[C@@H](O)[C@H](C)O2)[C@H](C)[C@@H](O[C@@H]2O[C@H](C)C[C@H](N(C)C)[C@H]2O)[C@](C)(O)C[C@H]1C [Compound 5, 9-Deoxo-9-(n-pentylamino)erythromycin]	0.5 (≈ 0.621 µM)	128 (≈ 159 µM)	2 (≈ 2.48 µM)	1 (≈ 1.24 µM)	8.8	25	13.6	0.015 (≈ 0.0186 µM)	0.5 (≈ 0.621 µM)	0.06 (≈ 0.0745 µM)	2 (≈ 2.48 µM)	128 (≈ 159 µM)	1 (≈ 1.24 µM)	0.125 (≈ 0.155 µM)			
CCCCCCCCN[C@@H]1[C@H](C)[C@@H](O)[C@](C)(O)[C@@H](CC)OC(=O)[C@H](C)[C@@H](O[C@H]2C[C@@](C)(OC)[C@@H](O)[C@H](C)O2)[C@H](C)[C@@H](O[C@@H]2O[C@H](C)C[C@H](N(C)C)[C@H]2O)[C@](C)(O)C[C@H]1C [Compound 8, 9-Deoxo-9-(n-octylamino)erythromcin]	0.25 (≈ 0.295 µM)		1 (≈ 1.18 µM)	0.25 (≈ 0.295 µM)	23.4	> 50	46.1	0.015 (≈ 0.0177 µM)	0.5 (≈ 0.59 µM)	0.015 (≈ 0.0177 µM)	1 (≈ 1.18 µM)		1 (≈ 1.18 µM)	0.06 (≈ 0.0708 µM)	38.3	> 50	MIC [11]: 8 µg/mL (≈ 9.44 µM); MIC [12]: 8 µg/mL (≈ 9.44 µM)

From EP0238178B1, “Novel derivatives of erythromycylamine” (ELI LILLY AND COMPANY, priority 1986, dated 1987)
